Experimental data published in ChEMBL document CHEMBL1145851, “Novel substituted pyridinyl imidazoles as potent anticytokine agents with low activity against hepatic cytochrome P450 enzymes” (J Med Chem, 2003).
Activity calls are given as the source filed them. The calls are words filed in the database; no cut-off is given here.

What was measured:
MAP kinase p38 [1] = target: T1, MAP kinase p38 (Homo sapiens, UniProt O15264+Q15759+Q16539+P53778); experiment: Inhibitory activity against TNF-alpha release in PBM cells; format: functional, cell-based
MAP kinase p38 [2] = target: T1, MAP kinase p38; experiment: Inhibitory activity against induction of IL-1-beta release in PBMCs; format: functional
MAP kinase p38 [3] = target: T1, MAP kinase p38; experiment: Inhibitory activity against mitogen-activated protein kinase p38 at 10 e-4 to 10 e-8 M concentration; format: protein assay
CYP2D6 = CYP2D6 (Homo sapiens, UniProt P10635); experiment: Inhibition of Cytochrome P450 2D6 at 10 uM; format: ADME
Sequence of CYP2D6 (P10635 whole entry): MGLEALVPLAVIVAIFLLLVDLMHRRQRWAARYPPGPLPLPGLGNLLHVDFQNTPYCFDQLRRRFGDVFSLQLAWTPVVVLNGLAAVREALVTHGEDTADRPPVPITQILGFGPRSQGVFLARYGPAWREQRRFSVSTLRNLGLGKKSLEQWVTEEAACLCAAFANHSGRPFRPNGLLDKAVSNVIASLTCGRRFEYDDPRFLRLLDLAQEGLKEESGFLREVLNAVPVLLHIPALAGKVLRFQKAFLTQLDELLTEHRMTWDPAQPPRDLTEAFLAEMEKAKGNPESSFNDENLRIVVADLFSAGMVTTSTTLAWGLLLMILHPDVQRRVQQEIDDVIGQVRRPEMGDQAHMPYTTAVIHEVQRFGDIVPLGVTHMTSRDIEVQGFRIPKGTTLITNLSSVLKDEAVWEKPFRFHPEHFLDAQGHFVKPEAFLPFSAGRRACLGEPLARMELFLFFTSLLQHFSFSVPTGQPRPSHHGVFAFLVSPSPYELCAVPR

MAP kinase p38 [4] = target: T1, MAP kinase p38; experiment: Inhibition of p38-related IL1-beta release by whole blood cells at 10 e-4 to 10 e-8 M; format: functional
CYP3A4 = CYP3A4 (Homo sapiens, UniProt P08684); experiment: Inhibition of Cytochrome P450 3A4 at 10 uM; format: ADME
Sequence of CYP3A4 (P08684 whole entry): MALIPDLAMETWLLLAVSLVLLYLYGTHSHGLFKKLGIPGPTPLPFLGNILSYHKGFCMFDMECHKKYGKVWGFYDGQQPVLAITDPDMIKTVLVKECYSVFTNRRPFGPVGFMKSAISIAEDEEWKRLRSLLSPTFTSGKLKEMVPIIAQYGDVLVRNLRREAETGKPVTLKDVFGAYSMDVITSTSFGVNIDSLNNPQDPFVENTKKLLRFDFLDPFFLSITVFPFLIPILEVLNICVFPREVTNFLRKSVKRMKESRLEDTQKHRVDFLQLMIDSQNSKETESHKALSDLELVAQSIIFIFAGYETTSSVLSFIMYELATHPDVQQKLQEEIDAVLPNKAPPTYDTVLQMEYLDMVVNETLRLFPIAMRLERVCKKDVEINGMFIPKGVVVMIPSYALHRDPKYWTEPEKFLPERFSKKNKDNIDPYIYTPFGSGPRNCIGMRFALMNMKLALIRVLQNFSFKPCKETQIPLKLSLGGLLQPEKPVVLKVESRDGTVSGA

MAP kinase p38 [5] = target: T1, MAP kinase p38; experiment: Inhibition of p38-related TNF-alpha release by whole blood cells at 10 e-4 to 10 e-8 M; format: functional
CYP1A2 = target: T2, CYP1A2 (Homo sapiens, UniProt P05177); experiment: Inhibition of Cytochrome P450 1A2 at 10 uM; format: ADME
T2 sequence (P05177 whole entry): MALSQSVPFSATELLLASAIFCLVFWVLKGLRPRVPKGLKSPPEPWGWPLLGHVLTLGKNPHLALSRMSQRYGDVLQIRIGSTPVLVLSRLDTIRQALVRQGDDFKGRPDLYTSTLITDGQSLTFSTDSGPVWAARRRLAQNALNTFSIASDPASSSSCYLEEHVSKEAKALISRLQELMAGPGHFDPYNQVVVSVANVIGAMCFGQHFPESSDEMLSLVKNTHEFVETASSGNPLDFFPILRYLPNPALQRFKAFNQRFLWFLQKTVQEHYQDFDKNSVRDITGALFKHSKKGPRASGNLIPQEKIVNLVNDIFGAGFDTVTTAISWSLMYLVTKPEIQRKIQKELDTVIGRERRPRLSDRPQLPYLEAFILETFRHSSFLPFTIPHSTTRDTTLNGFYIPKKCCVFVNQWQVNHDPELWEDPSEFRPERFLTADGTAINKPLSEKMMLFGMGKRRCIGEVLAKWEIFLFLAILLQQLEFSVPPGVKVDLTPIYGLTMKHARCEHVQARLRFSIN

CYP2C19 = CYP2C19 (Homo sapiens, UniProt P33261); experiment: Inhibition of Cytochrome P450 2C19 at 10 uM; format: ADME
Sequence of CYP2C19 (P33261 whole entry): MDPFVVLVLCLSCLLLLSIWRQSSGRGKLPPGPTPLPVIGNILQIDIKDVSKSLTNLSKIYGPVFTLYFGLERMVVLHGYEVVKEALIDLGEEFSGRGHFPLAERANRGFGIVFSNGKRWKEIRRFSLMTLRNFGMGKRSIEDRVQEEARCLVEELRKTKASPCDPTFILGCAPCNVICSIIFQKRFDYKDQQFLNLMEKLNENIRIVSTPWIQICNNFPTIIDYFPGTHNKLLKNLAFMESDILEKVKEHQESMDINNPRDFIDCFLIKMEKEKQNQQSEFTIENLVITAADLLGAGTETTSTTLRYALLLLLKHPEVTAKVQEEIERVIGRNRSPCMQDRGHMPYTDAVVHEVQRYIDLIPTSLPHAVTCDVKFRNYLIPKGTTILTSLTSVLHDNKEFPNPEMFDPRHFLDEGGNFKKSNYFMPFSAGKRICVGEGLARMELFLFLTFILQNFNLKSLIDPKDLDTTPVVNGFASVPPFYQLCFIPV

CYP2C9 = CYP2C9 (Homo sapiens, UniProt P11712); experiment: Inhibition of Cytochrome P450 2C9 at 10 uM; format: ADME
Sequence of CYP2C9 (P11712 whole entry): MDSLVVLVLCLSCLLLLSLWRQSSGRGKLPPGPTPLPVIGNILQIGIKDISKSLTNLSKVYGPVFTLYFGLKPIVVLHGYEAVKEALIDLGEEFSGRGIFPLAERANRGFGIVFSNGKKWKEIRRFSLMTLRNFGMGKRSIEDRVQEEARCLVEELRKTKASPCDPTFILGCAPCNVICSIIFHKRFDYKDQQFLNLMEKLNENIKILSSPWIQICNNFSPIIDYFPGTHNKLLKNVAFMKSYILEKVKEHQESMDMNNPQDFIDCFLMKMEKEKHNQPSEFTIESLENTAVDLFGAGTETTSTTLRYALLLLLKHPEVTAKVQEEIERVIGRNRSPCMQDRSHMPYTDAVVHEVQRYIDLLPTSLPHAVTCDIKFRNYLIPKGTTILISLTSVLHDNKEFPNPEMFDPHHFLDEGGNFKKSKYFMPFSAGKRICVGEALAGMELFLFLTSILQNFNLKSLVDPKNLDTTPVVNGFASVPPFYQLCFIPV

MAP kinase p38 [6] = target: T1, MAP kinase p38; experiment: Inhibition of p38-related IL1-beta release by PBMC cells at 10 e-4 to 10 e-8 M (no activity); format: functional, cell-based
MAP kinase p38 [7] = target: T1, MAP kinase p38; experiment: Inhibition of p38-related TNF-alpha release by PBMC cells at 10 e-4 to 10 e-8 M (no activity); format: functional, cell-based

Compound | IC50 (MAP kinase p38 [1]) | IC50 (MAP kinase p38 [2]) | IC50 (MAP kinase p38 [3]) | also measured
Fc1ccc(-c2nc(SCc3ccccc3)[nH]c2-c2ccnc(Cl)c2)cc1 | 60000 nM | 1800 nM | – | –
CCCn1c(SC)nc(-c2ccc(F)cc2)c1-c1ccncc1 | 1300 nM | 360 nM | 2200 nM | –
CSc1nc(-c2ccc(F)cc2)c(-c2ccnc(N(C)Cc3ccccc3)c2)[nH]1 | 4600 nM | 2700 nM | 8700 nM | –
CCCn1c(SC)nc(-c2ccc(F)cc2)c1-c1ccnc(NC(C)=O)c1 | 490 nM | 120 nM | – | –
CSc1nc(-c2ccc(F)cc2)c(-c2ccncc2)n1C1CC(C)(C)NC(C)(C)C1 | 16000 nM | 850 nM | 17000 nM | inhibition at 10 µM (CYP2D6): 19.1%; IC50 (MAP kinase p38 [4]): 18500 nM; inhibition at 10 µM (CYP3A4): 49.6%; IC50 (MAP kinase p38 [5]): 19100 nM; inhibition at 10 µM (CYP1A2): 9%; inhibition at 10 µM (CYP2C19): 15.3%; inhibition at 10 µM (CYP2C9): 7.9%
CSc1nc(-c2ccc(F)cc2)c(-c2ccnc(NC(C)c3ccccc3)c2)n1C (stereo unspecified) | 110 nM | 15 nM | 220 nM | inhibition at 10 µM (CYP2D6): 12.4%; IC50 (MAP kinase p38 [4]): 4100 nM; inhibition at 10 µM (CYP3A4): 85.8%; IC50 (MAP kinase p38 [5]): 3000 nM; inhibition at 10 µM (CYP1A2): 57.1%; inhibition at 10 µM (CYP2C19): 90.9%; inhibition at 10 µM (CYP2C9): 83.3%
CCCn1c(SC)nc(-c2ccc(F)cc2)c1-c1ccnc(N)c1 | 5400 nM | 500 nM | – | –
CSc1nc(-c2ccc(F)cc2)c(-c2ccncc2)[nH]1 | 900 nM | 44 nM | 630 nM | inhibition at 10 µM (CYP2D6): 39.8%; IC50 (MAP kinase p38 [4]): 1200 nM; inhibition at 10 µM (CYP3A4): 81.4%; IC50 (MAP kinase p38 [5]): 4200 nM; inhibition at 10 µM (CYP1A2): 43.5%; inhibition at 10 µM (CYP2C19): 79.5%; inhibition at 10 µM (CYP2C9): 72.4%
CC(Nc1cc(-c2[nH]c(SCc3ccc([S+](C)[O-])cc3)nc2-c2ccc(F)cc2)ccn1)c1ccccc1 (stereo unspecified) | 910 nM | 40 nM | 270 nM | –
CSc1nc(-c2ccc(F)cc2)c(-c2ccnc(NCc3ccccc3)c2)n1C | 580 nM | 82 nM | 930 nM | –
C[S+]([O-])c1ccc(CSc2nc(-c3ccc(F)cc3)c(-c3ccncc3)[nH]2)cc1 (stereo unspecified) | 1100 nM | 380 nM | – | inhibition at 10 µM (CYP2D6): 71.8%; inhibition at 10 µM (CYP3A4): 87.1%; inhibition at 10 µM (CYP1A2): 8.4%; inhibition at 10 µM (CYP2C19): 73.6%; inhibition at 10 µM (CYP2C9): 72.7%
C[S+]([O-])c1ccc(-c2nc(-c3ccncc3)c(-c3ccc(F)cc3)[nH]2)cc1 (stereo unspecified) [SB-203580] | – | – | – | inhibition at 10 µM (CYP2D6): 67%; inhibition at 10 µM (CYP3A4): 61%; inhibition at 10 µM (CYP1A2): 61%; inhibition at 10 µM (CYP2C19): 85%; inhibition at 10 µM (CYP2C9): 75%
CSc1nc(-c2ccc(F)cc2)c(-c2ccncc2)n1C | 2200 nM | 450 nM | 2200 nM | IC50 (MAP kinase p38 [4]): 1080 nM; IC50 (MAP kinase p38 [5]): 5100 nM
CSc1nc(-c2ccc(F)cc2)c(-c2ccnc(NCc3ccccc3)c2)[nH]1 | 630 nM | 108 nM | 650 nM | –
CSc1nc(-c2ccc(F)cc2)c(-c2ccnc(O)c2)[nH]1 | 3100 nM | 500 nM | – | –
CSc1nc(-c2ccc(F)cc2)c(-c2ccnc(NC(C)=O)c2)n1C | 1100 nM | 75 nM | 500 nM | inhibition at 10 µM (CYP2D6): 13.4%; IC50 (MAP kinase p38 [4]): 10800 nM; inhibition at 10 µM (CYP3A4): 16.5%; IC50 (MAP kinase p38 [5]): 12500 nM; inhibition at 10 µM (CYP1A2): 32.4%; inhibition at 10 µM (CYP2C19): 20.3%; inhibition at 10 µM (CYP2C9): 27.6%
CSc1nc(-c2ccc(F)cc2)c(-c2ccnc(NCc3ccc(Cl)cc3)c2)[nH]1 | 500 nM | 150 nM | 950 nM | –
CSc1nc(-c2ccnc(NC(C)c3ccccc3)c2)c(-c2ccc(F)cc2)n1C (stereo unspecified) | – | – | 27000 nM | –
COc1ccc(CNc2cc(-c3[nH]c(SCc4ccccc4)nc3-c3ccc(F)cc3)ccn2)cc1 | 21000 nM | 180 nM | – | –
CSc1nc(-c2ccc(F)cc2)c(-c2ccnc(NCCc3ccccc3)c2)[nH]1 | 350 nM | 31 nM | 240 nM | –
COc1cc(-c2[nH]c(SC)nc2-c2ccc(F)cc2)ccn1 | 1900 nM | 150 nM | – | –
CSc1nc(-c2ccc(F)cc2)c(-c2ccnc(N(Cc3ccccc3)Cc3ccccc3)c2)n1C | – | – | – | NA (MAP kinase p38 [6]): inactive; NA (MAP kinase p38 [7]): inactive

Compound | IC50 (MAP kinase p38 [1]) | IC50 (MAP kinase p38 [2]) | IC50 (MAP kinase p38 [3]) | also measured
CSc1nc(-c2ccc(F)cc2)c(-c2ccnc(NC(C)=O)c2)n1C1CC(C)(C)NC(C)(C)C1 | 4500 nM | 460 nM | 340 nM | inhibition at 10 µM (CYP2D6): 14.6%; IC50 (MAP kinase p38 [4]): 2150 nM; inhibition at 10 µM (CYP3A4): 79%; IC50 (MAP kinase p38 [5]): 5400 nM; inhibition at 10 µM (CYP1A2): < 0%; inhibition at 10 µM (CYP2C19): 7.6%; inhibition at 10 µM (CYP2C9): 2.6%
C[S+]([O-])c1ccc(CSc2nc(-c3ccc(F)cc3)c(-c3ccnc(F)c3)[nH]2)cc1 (stereo unspecified) | 6900 nM | 2450 nM | 9300 nM | –
CSc1nc(-c2ccc(F)cc2)c(-c2ccnc(NCc3ccc(Cl)c(Cl)c3)c2)[nH]1 | 720 nM | 230 nM | 700 nM | –
CSc1nc(-c2ccc(F)cc2)c(-c2ccnc(N)c2)n1C | 3200 nM | 270 nM | 2300 nM | –
CC(Nc1cc(-c2[nH]c(SCc3ccccc3)nc2-c2ccc(F)cc2)ccn1)c1ccccc1 (stereo unspecified) | 2700 nM | 45 nM | 380 nM | –
C[S+]([O-])c1ccc(CSc2nc(-c3ccc(F)cc3)c(-c3ccnc(NCc4ccccc4)c3)[nH]2)cc1 (stereo unspecified) | 2000 nM | 470 nM | 1450 nM | –
CSc1nc(-c2ccnc(O)c2)c(-c2ccc(F)cc2)n1C | 31300 nM | 7200 nM | – | –
CSc1nc(-c2ccc(F)cc2)c(-c2ccnc(NC(C)c3ccccc3)c2)[nH]1 (stereo unspecified) | – | – | – | inhibition at 10 µM (CYP2D6): 31.1%; inhibition at 10 µM (CYP3A4): 79.2%; inhibition at 10 µM (CYP1A2): 66.7%; inhibition at 10 µM (CYP2C19): 83.5%; inhibition at 10 µM (CYP2C9): 79%
CCNc1cc(-c2c(-c3ccc(F)cc3)nc(SC)n2C)ccn1 | 600 nM | 71 nM | 700 nM | IC50 (MAP kinase p38 [4]): 2000 nM; IC50 (MAP kinase p38 [5]): 5000 nM
C[S+]([O-])c1ccc(CSc2nc(-c3ccc(F)cc3)c(-c3ccnc(Cl)c3)[nH]2)cc1 (stereo unspecified) | 12000 nM | 2100 nM | – | –
COc1ccc(CNc2cc(-c3[nH]c(SC)nc3-c3ccc(F)cc3)ccn2)cc1 | 640 nM | 56 nM | 790 nM | –
COc1ccc(C(=O)Nc2cc(-c3c(-c4ccc(F)cc4)nc(SC)n3C)ccn2)cc1 | 640 nM | 440 nM | – | –
CSc1nc(-c2ccc(F)cc2)c(-c2ccnc(NCc3ccc(C)cc3)c2)[nH]1 | 670 nM | 85 nM | 830 nM | –
CSc1nc(-c2ccc(F)cc2)c(-c2ccnc(Nc3ccccc3)c2)[nH]1 | 340 nM | 30 nM | 130 nM | –
CCCn1c(SC)nc(-c2ccc(F)cc2)c1-c1ccnc(NCC)c1 | 430 nM | 150 nM | – | –
CSc1nc(-c2ccc(F)cc2)c(-c2ccnc(Cl)c2)[nH]1 | 2200 nM | 350 nM | – | inhibition at 10 µM (CYP2D6): 18.6%; inhibition at 10 µM (CYP3A4): 48.8%; inhibition at 10 µM (CYP1A2): 92.6%; inhibition at 10 µM (CYP2C19): 41.4%; inhibition at 10 µM (CYP2C9): 65%
CSc1nc(-c2ccc(F)cc2)c(-c2ccnc(OC(C)C)c2)[nH]1 | 400 nM | 47 nM | 560 nM | inhibition at 10 µM (CYP2D6): < 0%; IC50 (MAP kinase p38 [4]): 2200 nM; inhibition at 10 µM (CYP3A4): 49.6%; IC50 (MAP kinase p38 [5]): 7200 nM; inhibition at 10 µM (CYP1A2): 83.2%; inhibition at 10 µM (CYP2C19): 62.6%; inhibition at 10 µM (CYP2C9): 67.5%
Fc1ccc(-c2[nH]c(SCc3ccccc3)nc2-c2ccnc(NCc3ccccc3)c2)cc1 | 3200 nM | 200 nM | 1420 nM | –
CCNc1cc(-c2c(-c3ccc(F)cc3)nc(SC)n2C2CC(C)(C)NC(C)(C)C2)ccn1 | 2900 nM | 620 nM | 220 nM | IC50 (MAP kinase p38 [4]): 2700 nM; IC50 (MAP kinase p38 [5]): 11000 nM
Fc1ccc(-c2nc(SCc3ccccc3)[nH]c2-c2ccnc(F)c2)cc1 | 40500 nM | 2900 nM | 4200 nM | –
CSc1nc(-c2ccc(F)cc2)c(-c2ccnc(F)c2)[nH]1 | 2800 nM | 300 nM | 3800 nM | –
